Assay results reported in the NIST ThermoML archive (doi:10.1016/j.jct.2016.11.030).
Numbers after ± are expanded uncertainties.

Columns and labels:
[1] = Molar enthalpy of transition or fusion; conditions: Crystal; DSC
[2] = Crystal; DTA

## COc1cc(CO)ccc1O [4-hydroxy-3-methoxybenzyl alcohol]
[1]
  Molar enthalpy of transition or fusion: 7.35 ± 0.335 kcal/mol
[2]
  Normal melting temperature: 116 ± 1.1 °C
